# Experimental data from patent US20080307843A1, “Nitrification inhibitor and soil improver and fertilizer containing the same” (JAPAN INTERNATIONAL RESEARCH CENTER FOR AGRICULTURAL …, priority 2006, published 2008).
# How the values were obtained:
# [1] = system: Nitrosomonas europaea IF014298 with luciferase gene (luxAB); test: in-vitro nitrification bacteria test, biological luminescence accompanying nitrification reaction; details: incubation at 15° C. for 30 minutes; for 80% inhibitory concentration: concentration where the nitrification inhibitory ratio became 80%
# [2] = in the ordinarily used range; RTECS No. QJ5775000; cited from earlier work
SMILES,80% inhibitory concentration [1],toxicity [2],50% inhibitory concentration ([1]; concentration where the nitrification-inhibitory ratio became 50%)
"Clc1cccc(C(Cl)(Cl)Cl)n1 [Comparative Example 14, 2-chloro-6-Trichloromethylpyridine, reference compound]",4 ppm,,
"N#CN=C(N)N [Comparative Example 15, dicyanodiamide, reference compound]",185 ppm,,
"O=C1C=CC(=O)c2c(O)cccc21 [Example 1, 5-hydroxy-1,4-naphtoquinone]",0.08 ppm,low toxicity,0.03 ppm
